Laboratory results: patent US20210070748A1, “INHIBITORS OF BRUTONS TYROSINE KINASE” (Pharmacyclics LLC, priority 2015, published 2021)

Assays:
Type in all cases: biochemical
[1] = target: LCK (Homo sapiens, UniProt P06239); assay: Inhibition of a panel of kinases, in vitro HotSpot kinase assay: LCK; details: D-compounds panel data; 1 μM ATP; read-out: IC50 LCK
[2] = target: T1, ITK (Homo sapiens, UniProt Q08881); assay: Inhibition of a panel of kinases, in vitro HotSpot kinase assay: ITK; details: D-compounds panel data; 1 μM ATP
T1 sequence (Q08881 1-620): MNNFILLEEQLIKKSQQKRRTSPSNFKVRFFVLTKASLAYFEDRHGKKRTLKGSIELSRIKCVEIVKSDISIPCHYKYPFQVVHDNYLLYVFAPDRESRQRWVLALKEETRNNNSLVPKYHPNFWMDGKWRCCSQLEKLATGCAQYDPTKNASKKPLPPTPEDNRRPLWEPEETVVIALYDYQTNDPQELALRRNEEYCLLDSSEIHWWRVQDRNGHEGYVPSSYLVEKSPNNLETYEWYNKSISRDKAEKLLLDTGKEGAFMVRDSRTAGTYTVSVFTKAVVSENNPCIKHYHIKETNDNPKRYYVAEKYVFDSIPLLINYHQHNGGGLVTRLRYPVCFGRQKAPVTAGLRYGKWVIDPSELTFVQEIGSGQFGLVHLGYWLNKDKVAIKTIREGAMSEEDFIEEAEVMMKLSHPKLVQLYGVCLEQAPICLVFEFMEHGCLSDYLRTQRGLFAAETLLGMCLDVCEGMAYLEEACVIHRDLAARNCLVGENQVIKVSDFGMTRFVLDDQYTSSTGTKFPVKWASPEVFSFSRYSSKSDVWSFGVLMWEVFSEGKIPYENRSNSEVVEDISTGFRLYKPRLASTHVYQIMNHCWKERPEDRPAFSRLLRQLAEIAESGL
Protocol: (§1) The degree of inhibition of a panel of kinases is determined using the in vitro HotSpot kinase assay (purified enzymes, ^33P-ATP, an appropriate substrate and 1 μM ATP).

[3] = target: T2, BTK-WT (Homo sapiens, UniProt Q06187); assay: Btk in vitro inhibitory activity (one of Method A TR-FRET, Method B electrophoretic mobility shift, Method C radiometric filter binding); details: D-compounds panel data; read-out: IC50 BTK-WT
T2 construct: purified from insect cells as a full-length construct containing an N-terminal 6X-His tag; His6 (N); made in house; host or cells: insect cells (baculovirus Sf21 in Method B)

[4] = target: EGFR (Homo sapiens, UniProt P00533); assay: Inhibition of a panel of kinases, in vitro HotSpot kinase assay: EGFR; details: D-compounds panel data; 1 μM ATP
Protocol: as §1

Sequence of EGFR (P00533 25-1210): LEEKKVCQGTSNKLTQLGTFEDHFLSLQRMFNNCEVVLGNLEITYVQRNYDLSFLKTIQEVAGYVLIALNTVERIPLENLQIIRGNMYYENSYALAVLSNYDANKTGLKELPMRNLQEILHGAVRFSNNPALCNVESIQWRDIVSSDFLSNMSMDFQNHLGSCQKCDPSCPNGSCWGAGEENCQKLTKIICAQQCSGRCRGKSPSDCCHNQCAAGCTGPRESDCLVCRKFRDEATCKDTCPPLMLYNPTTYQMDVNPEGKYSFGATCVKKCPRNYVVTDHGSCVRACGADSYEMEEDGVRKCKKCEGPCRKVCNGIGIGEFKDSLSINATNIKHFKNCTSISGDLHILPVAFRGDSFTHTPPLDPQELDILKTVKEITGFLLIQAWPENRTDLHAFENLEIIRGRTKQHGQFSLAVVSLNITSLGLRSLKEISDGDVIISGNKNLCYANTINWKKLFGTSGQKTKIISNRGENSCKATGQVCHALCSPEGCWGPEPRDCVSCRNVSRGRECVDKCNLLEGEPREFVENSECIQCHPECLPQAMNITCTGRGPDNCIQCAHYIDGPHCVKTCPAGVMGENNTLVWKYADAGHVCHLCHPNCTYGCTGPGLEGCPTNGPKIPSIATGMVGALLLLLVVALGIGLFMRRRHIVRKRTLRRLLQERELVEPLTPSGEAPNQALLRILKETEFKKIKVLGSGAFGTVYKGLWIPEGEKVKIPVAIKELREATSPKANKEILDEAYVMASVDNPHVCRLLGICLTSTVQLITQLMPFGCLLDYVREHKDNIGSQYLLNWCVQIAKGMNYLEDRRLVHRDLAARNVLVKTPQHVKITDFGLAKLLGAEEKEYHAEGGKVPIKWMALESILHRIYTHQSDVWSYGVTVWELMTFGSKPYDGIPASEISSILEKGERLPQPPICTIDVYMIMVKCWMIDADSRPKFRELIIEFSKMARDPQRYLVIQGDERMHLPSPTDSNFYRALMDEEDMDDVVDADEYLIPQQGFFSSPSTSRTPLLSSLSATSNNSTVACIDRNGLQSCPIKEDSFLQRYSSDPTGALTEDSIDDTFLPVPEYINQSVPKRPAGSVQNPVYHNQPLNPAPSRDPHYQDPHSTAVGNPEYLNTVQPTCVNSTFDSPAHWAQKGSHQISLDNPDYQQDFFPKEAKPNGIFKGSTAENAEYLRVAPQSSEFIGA
T2 sequence (Q06187 whole entry): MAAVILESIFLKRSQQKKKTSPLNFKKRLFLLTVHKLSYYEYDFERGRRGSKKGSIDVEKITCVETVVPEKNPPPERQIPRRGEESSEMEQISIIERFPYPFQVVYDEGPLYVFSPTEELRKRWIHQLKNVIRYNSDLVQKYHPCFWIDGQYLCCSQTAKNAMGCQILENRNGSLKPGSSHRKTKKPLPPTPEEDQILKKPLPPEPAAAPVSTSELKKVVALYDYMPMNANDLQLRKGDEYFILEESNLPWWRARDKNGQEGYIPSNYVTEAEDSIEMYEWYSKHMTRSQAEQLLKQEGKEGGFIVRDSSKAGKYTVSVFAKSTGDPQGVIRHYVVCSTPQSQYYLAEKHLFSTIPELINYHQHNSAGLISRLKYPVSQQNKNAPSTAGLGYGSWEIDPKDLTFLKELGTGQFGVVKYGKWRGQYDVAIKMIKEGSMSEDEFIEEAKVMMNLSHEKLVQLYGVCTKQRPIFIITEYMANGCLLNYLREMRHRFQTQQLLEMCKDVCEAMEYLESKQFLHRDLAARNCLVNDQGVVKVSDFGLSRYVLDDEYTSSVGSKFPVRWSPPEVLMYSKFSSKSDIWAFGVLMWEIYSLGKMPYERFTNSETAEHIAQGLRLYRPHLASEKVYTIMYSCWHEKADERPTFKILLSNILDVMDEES
Sequence of LCK (P06239 whole entry): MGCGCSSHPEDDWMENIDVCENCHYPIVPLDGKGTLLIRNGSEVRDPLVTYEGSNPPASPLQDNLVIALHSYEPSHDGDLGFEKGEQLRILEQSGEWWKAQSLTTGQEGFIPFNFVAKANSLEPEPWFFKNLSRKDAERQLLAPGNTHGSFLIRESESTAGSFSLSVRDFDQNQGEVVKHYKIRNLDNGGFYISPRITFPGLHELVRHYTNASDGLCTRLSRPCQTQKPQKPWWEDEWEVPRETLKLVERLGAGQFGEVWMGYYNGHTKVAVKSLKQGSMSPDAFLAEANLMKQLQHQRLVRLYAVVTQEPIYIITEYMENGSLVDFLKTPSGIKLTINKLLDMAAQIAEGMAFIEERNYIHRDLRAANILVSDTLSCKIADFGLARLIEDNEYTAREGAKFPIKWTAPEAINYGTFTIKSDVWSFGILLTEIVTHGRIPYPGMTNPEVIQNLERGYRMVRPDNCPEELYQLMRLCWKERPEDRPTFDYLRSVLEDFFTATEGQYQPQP

Compound | IC50 [1] | IC50 [2] | IC50 [3] | IC50 [4]
C[C@@H]1[C@H](NC(=O)c2ccc(C3CC3)cc2)CCCN1c1cnc(C(N)=O)c(Nc2cnn(C3CCN(CC(F)(F)F)CC3)c2)n1 [Example D-293, 5-[(2R,3R)-3-(4-cyclopropylbenzamido)-2-methylpiperidin-1-yl]-3-({1-[1-(2,2,2-trifluoroethyl)piperidin-4-yl]-1H-pyrazol-4-yl}amino)pyrazine-2-carboxamide] | > 10000 nM | 1000 to 10000 nM | ≤ 10 nM | > 10000 nM
C[C@@H]1[C@H](NC(=O)c2ccc(C3CC3)cc2)CCCN1c1cnc(C(N)=O)c(Nc2cnn(C3CCOCC3)c2)n1 [Example D-274, 5-[(2R,3R)-3-(4-cyclopropylbenzamido)-2-methylpiperidin-1-yl]-3-{[1-(oxan-4-yl)-1H-pyrazol-4-yl]amino}pyrazine-2-carboxamide] | 100 to 1000 nM | 100 to 1000 nM | ≤ 10 nM | 1000 to 10000 nM
C[C@@H]1[C@H](NC(=O)c2ccc3cnn(C)c3c2)CCCN1c1cnc(C(N)=O)c(Nc2cnn(C)c2)n1 [Example D-259, N-[(2R,3R)-1-{5-carbamoyl-6-[(1-methyl-1H-pyrazol-4-yl)amino]pyrazin-2-yl}-2-methylpiperidin-3-yl]-1-methyl-1H-indazole-6-carboxamide] | 10 to 100 nM | 100 to 1000 nM | ≤ 10 nM | 1000 to 10000 nM
C[C@@H]1[C@H](NC(=O)c2cc(C3CC3)n[nH]2)CCCN1c1cnc(C(N)=O)c(Nc2cnn(C)c2)n1 [Example D-252, 5-[(2R,3R)-3-(3-cyclopropyl-1H-pyrazole-5-amido)-2-methylpiperidin-1-yl]-3-[(1-methyl-1H-pyrazol-4-yl)amino]pyrazine-2-carboxamide] | 10 to 100 nM | 10 to 100 nM | ≤ 10 nM | 100 to 1000 nM
C[C@@H]1[C@H](NC(=O)c2ccc(C3CC3)cc2)CCCN1c1cnc(C(N)=O)c(Nc2cc(C3CCN(C)CC3)ns2)n1 [Example D-312, 5-[(2R,3R)-3-(4-cyclopropylbenzamido)-2-methylpiperidin-1-yl]-3-{[3-(1-methylpiperidin-4-yl)-1,2-thiazol-5-yl]amino}pyrazine-2-carboxamide] | < 10 nM | 10 to 100 nM | ≤ 10 nM | 100 to 1000 nM
C[C@@H]1[C@H](NC(=O)c2ccc(C3CC3)cc2)CCCN1c1cnc(C(N)=O)c(Nc2cnn(C3CCC(F)(F)CC3)c2)n1 [Example D-307, 5-[(2R,3R)-3-(4-cyclopropylbenzamido)-2-methylpiperidin-1-yl]-3-{[1-(4,4-difluorocyclohexyl)-1H-pyrazol-4-yl]amino}pyrazine-2-carboxamide] | 100 to 1000 nM | 1000 to 10000 nM | ≤ 10 nM | > 10000 nM
C[C@@H]1[C@H](NC(=O)c2c[nH]c(C3CC3)n2)CCCN1c1cnc(C(N)=O)c(Nc2cnn(C)c2)n1 [Example D-264, 5-[(2R,3R)-3-(2-cyclopropyl-1H-imidazole-4-amido)-2-methylpiperidin-1-yl]-3-[(1-methyl-1H-pyrazol-4-yl)amino]pyrazine-2-carboxamide] | 10 to 100 nM | 100 to 1000 nM | ≤ 10 nM | 100 to 1000 nM
C[C@@H]1[C@H](NC(=O)c2ccc3c(cnn3C)c2)CCCN1c1cnc(C(N)=O)c(Nc2cnn(C)c2)n1 [Example D-254, N-[(2R,3R)-1-{5-carbamoyl-6-[(1-methyl-1H-pyrazol-4-yl)amino]pyrazin-2-yl}-2-methylpiperidin-3-yl]-1-methyl-1H-indazole-5-carboxamide] | 100 to 1000 nM | 100 to 1000 nM | ≤ 10 nM | 1000 to 10000 nM
C[C@@H]1[C@H](NC(=O)c2ccc(C(C)(C)O)cc2F)CCCN1c1cnc(C(N)=O)c(Nc2cnn(C)c2)n1 [Example D-302, 5-[(2R,3R)-3-[2-fluoro-4-(2-hydroxypropan-2-yl)benzamido]-2-methylpiperidin-1-yl]-3-[(1-methyl-1H-pyrazol-4-yl)amino]pyrazine-2-carboxamide] | 10 to 100 nM | 10 to 100 nM | ≤ 10 nM | 10 to 100 nM
CC(=O)N1CCN(c2ccc(Nc3nc(N4CCC[C@@H](NC(=O)c5ccc(C6CC6)cc5)[C@H]4C)cnc3C(N)=O)cc2)CC1 [Example D-295, 3-{[4-(4-acetylpiperazin-1-yl)phenyl]amino}-5-[(2R,3R)-3-(4-cyclopropylbenzamido)-2-methylpiperidin-1-yl]pyrazine-2-carboxamide] | 10 to 100 nM | 100 to 1000 nM | ≤ 10 nM | 100 to 1000 nM

Further lines, results first:

IC50 [1] | IC50 [2] | IC50 [3] | IC50 [4] | Compound
10 to 100 nM | 10 to 100 nM | ≤ 10 nM | 1000 to 10000 nM | C[C@@H]1[C@H](NC(=O)c2ccc(C(C)(C)O)cc2F)CCCN1c1nnc(C(N)=O)c(Nc2cnn(C)c2)n1 [Example D-308, 3-[(2R,3R)-3-[2-fluoro-4-(2-hydroxypropan-2-yl)benzamido]-2-methylpiperidin-1-yl]-5-[(1-methyl-1H-pyrazol-4-yl)amino]-1,2,4-triazine-6-carboxamide]
10 to 100 nM | 100 to 1000 nM | ≤ 10 nM | > 10000 nM | C[C@@H]1[C@H](NC(=O)c2ccc(C3CC3)cc2)CCCN1c1cnc(C(N)=O)c(Nc2cnn(-c3ccncc3)c2)n1 [Example D-284, 5-[(2R,3R)-3-(4-cyclopropylbenzamido)-2-methylpiperidin-1-yl]-3-{[1-(pyridin-4-yl)-1H-pyrazol-4-yl]amino}pyrazine-2-carboxamide]
10 to 100 nM | 100 to 1000 nM | ≤ 10 nM | 100 to 1000 nM | C[C@@H]1[C@H](NC(=O)c2coc(C3CC3)n2)CCCN1c1cnc(C(N)=O)c(Nc2cnn(C)c2)n1 [Example D-257, 5-[(2R,3R)-3-(2-cyclopropyl-1,3-oxazole-4-amido)-2-methylpiperidin-1-yl]-3-[(1-methyl-1H-pyrazol-4-yl)amino]pyrazine-2-carboxamide]
> 10000 nM | > 10000 nM | 10 to 100 nM | > 10000 nM | CCOCCOc1ccc(Nc2nc(N3CCC[C@@H](NC(=O)c4ccc(C5CC5)cc4)[C@H]3C)cnc2C(N)=O)cc1 [Example D-299, 5-[(2R,3R)-3-(4-cyclopropylbenzamido)-2-methylpiperidin-1-yl]-3-{[4-(2-ethoxyethoxy)phenyl]amino}pyrazine-2-carboxamide]
10 to 100 nM | 10 to 100 nM | ≤ 10 nM | 100 to 1000 nM | C[C@@H]1[C@H](NC(=O)c2ccc(C3CC3)cn2)CCCN1c1cnc(C(N)=O)c(Nc2ccc(OC3CCN(C)CC3)cc2)n1 [Example D-297, 5-[(2R,3R)-3-(5-cyclopropylpyridine-2-amido)-2-methylpiperidin-1-yl]-3-({4-[(1-methylpiperidin-4-yl)oxy]phenyl}amino)pyrazine-2-carboxamide]
> 10000 nM | > 10000 nM | 1000 to 10000 nM | > 10000 nM | C[C@@H]1[C@H](NC(=O)c2ccc(C3CC3)cc2)CCCN1c1cnc(C(N)=O)c(Nc2cnn(C)c2C(F)(F)F)n1 [Example D-276, 5-[(2R,3R)-3-(4-cyclopropylbenzamido)-2-methylpiperidin-1-yl]-3-{[1-methyl-5-(trifluoromethyl)-1H-pyrazol-4-yl]amino}pyrazine-2-carboxamide]
100 to 1000 nM | 100 to 1000 nM | ≤ 10 nM | > 10000 nM | COCCN(C)Cc1cc(Nc2nc(N3CCC[C@@H](NC(=O)c4ccc(C5CC5)cc4)[C@H]3C)cnc2C(N)=O)sn1 [Example D-269, 5-[(2R,3R)-3-(4-cyclopropylbenzamido)-2-methylpiperidin-1-yl]-3-[(3-{[(2-methoxyethyl)(methyl)amino]methyl}-1,2-thiazol-5-yl)amino]pyrazine-2-carboxamide]
100 to 1000 nM | 100 to 1000 nM | ≤ 10 nM | 1000 to 10000 nM | C[C@@H]1[C@H](NC(=O)N(C)C)CCCN1c1cnc(C(N)=O)c(Nc2ccc(N3CCC(F)(F)CC3)cc2)n1 [Example D-306, 3-{[4-(4,4-difluoropiperidin-1-yl)phenyl]amino}-5-[(2R,3R)-3-[(dimethylcarbamoyl)amino]-2-methylpiperidin-1-yl]pyrazine-2-carboxamide]
100 to 1000 nM | 100 to 1000 nM | ≤ 10 nM | 1000 to 10000 nM | C[C@@H]1[C@H](NC(=O)c2ccc(C3CC3)cc2)CCCN1c1cnc(C(N)=O)c(Nc2cnn(C3CCN(C(=O)C4CC4)CC3)c2)n1 [Example D-288, 3-{[1-(1-cyclopropanecarbonylpiperidin-4-yl)-1H-pyrazol-4-yl]amino}-5-[(2R,3R)-3-(4-cyclopropylbenzamido)-2-methylpiperidin-1-yl]pyrazine-2-carboxamide]
